In US10369123B2, “Perk activator for the treatment of neurodegenerative diseases” (DEUTSCHES ZENTRUM FÜR NEURODEGENERATIVE ERKRANKUNGEN E.V. …, priority 2014, dated 2019):

What was measured:
Type in all cases: cell-based, human
[1] = system: EIF2AK3, EIF2A and ATF4 mRNA; assay: Quantitative PCR of UPR genes in differentiated LUHMES neurons; settings: 48 h; for ATF4 mRNA expression: thapsigargin 30 nM or annonacin 25 nM
Experimental: (§1) Nunc™ Nunclon™ Delta 6-well (for protein and mRNA) or 48-well (for cell assays) plates (Thermo Fisher Scientific, Waltham, Mass., USA) were coated with 100 μg/ml poly-L-lysine (Sigma-Aldrich, St. Louis, Mo., USA) and 5 μg/ml fibronectin (Sigma-Aldrich). LUHMES (Lund Human Mesencephalic) cells, derived from human embryonic ventral mesencephalic cells by conditional immortalization (Tet-off v-myc over-expression) were seeded out in a concentration of 130,000 cells/cm^2 to achieve a confluence of 50%. They were then differentiated for 8 days in a medium of DMEM/F12 (Sigma-Aldrich), 1 μg/ml tetracycline, […] and 490 μg/ml dbcAMP into post-mitotic neurons with a dopaminergic phenotype (Lotharius et al. 2005).
(§2) For all experiments with annonacin, the medium was replaced during the intoxication period with new medium containing glucose levels reduced to 250 μM, i.e. the physiological concentration in the human brain.
(§3) RNA from human tissue samples was extracted by grinding the tissue in liquid nitrogen to a powder and then dissolving it in the RA1 buffer supplied as part of the NucleoSpin® RNA (Macherey Nagel) RNA extraction kit+1% (v/v) 2-mercaptoethanol (Sigma-Aldrich). RNA from cells was extracted by scraping the cells from the culture plate with RA1 buffer+1% (v/v) 2-mercaptoethanol. The remaining extraction procedure was according to the manufacturer's instructions for the NucleoSpin® RNA kit. RNA concentrations were determined using the NanoDrop 2000c Spectrophotometer. The RNA was then transcribed into cDNA with the iScript™ cDNA Synthesis Kit (BioRad) using the manufacturer's instructions. Real-Time PCR was performed on the Applied Biosystems® StepOnePlus™ (Life Technologies) system using TagMan® Universal Master Mix II and TaqMan® primers against total MAPT, MAPT 3R, MAPT 4R, EIF2A, EI2AK3 and ATF4. POL2A and PSCM1 served as reference targets as they were determined to be the most stably expressed across experimental conditions. The results were analyzed using the StepOne Plus software (Life Technologies) and Qbase software (Biogazelle) and were then graphically and statistically analyzed with Prism 6 (GraphPad Software). Absolute quantification was performed by creating a standard curve with plasmids containing either the 2N3R or the 2N4R spliced variant of MAPT (see Table 2). The absolute quantity was computed by deriving the relationship between CT values and absolute quantity with the StepOne Plus software.

[2] = system: tau; assay: Western blot of tau conformation and phosphorylation, annonacin model; settings: annonacin 25 nM, 48 h
Experimental: as §1, §2
(§4) Protein was extracted by scraping the cells from the culture plate with Mammalian Protein Extraction Reagent (M-PER, Thermo Fisher Scientific) and 1× cOmplete Protease Inhibitor Cocktail Tablets (Hoffmann-La Roche, Basel, Switzerland) and 1× PhosSTOP Phosphatase Inhibitor Cocktail Tablets (Hoffmann-La Roche). For pNRF2 blots, cells were extracted with 2% SDS tris-buffer instead of M-PER in order to obtain whole cell extracts and not to lose the nuclear fraction. The protein solution was frozen at −80° C., immediately after retrieval, for a minimum of two hours. The solution was then thawed on ice, vortexed, centrifuged at 5000 g for 15 min at 4° C. and the supernatant retrieved. Protein concentrations were determined using the BCA kit (Thermo Fisher Scientific) by heating the samples at 60° C. for 30 min and measuring the absorption on the NanoDrop 2000c Spectrophotometer (Thermo Fisher Scientific).
(§5) 20 μg of protein (unless indicated otherwise) were adjusted to equal concentrations between samples by dilution with M-PER and subsequently heated at 95° C. for 5 minutes with Roti®-Load 1 (Carl Roth). SDS-PAGE was performed using Any kD™ Mini-PROTEAN® TGX™ Gels (BioRad, Berkeley, Calif., USA) in a tris-glycine running buffer. The protein was blotted onto PVDF membrane (BioRad) at 70 V for 65 minutes on ice. The membrane was blocked with 1× Roti®-Block solution (Carl Roth) for 1 h and then incubated at 4° C. overnight under gentle shaking with the primary antibody (see Table 5) in TBS with 5% BSA (Cell Signaling Technology) and 0.05% TWEEN (Sigma-Aldrich).
The membranes were then washed and incubated with the species specific HRP-bound secondary antibody (Vector Laboratories, Burlingame, Calif., USA) at 1:2500 in 1× Roti®-Block solution for 2 h, followed by further washing and exposure to Clarity Western ECL Substrate (BioRad) or, in the case of MC1 and 4R-tau, to Amersham™ ECL™ Prime (GE Healthcare). Chemiluminescence was detected with the Gel Doc™ XR System (BioRad) and analyzed with Image Lab™ software (BioRad), followed by graphical and statistical analysis with Prism 6 (GraphPad Software).

[3] = system: 3R/4R MAPT mRNA, splicing factor SRSF2; assay: Quantitative PCR of MAPT isoforms and splicing factors, annonacin model; settings: annonacin
Experimental: as §1, §2, §3

[4] = system: LUHMES neurons; assay: Morphological inspection and counts of viable cells; settings: annonacin 25 nM, 48 h
Experimental: as §1, §2
The protection by the PERK activator against annonacin and 4R-tau protein overexpression was also evident on morphological inspection of the cells. […] Lentiviral 4R-tau overexpression had similar effects. […] Cell counts of viable cells with intact nuclear and somatic morphology were counted in randomly selected 1300×1000 sized areas in 4 biological replicates each, confirming the protective effects of Pa.

[5] = system: LUHMES neurons; assay: MTT assay, annonacin-treated LUHMES neurons; settings: annonacin alone, different concentrations, 48 h
Experimental: as §1, §2
Thiazolyl Blue Tetrazolium […] (MTT) (Sigma Aldrich) was dissolved in sterile PBS to a concentration of 5 mg/ml. This stock solution was added to the cells in culture medium to achieve a final concentration of 0.5 mg/ml. The 48-well culture plate was then incubated at 37° C. for 1 h, the medium removed completely and frozen at −80° C. for 1 h. The plate was then thawed, 300 μl DMSO (AppliChem, Darmstadt, Germany) was added per well and the plate was shaken to ensure complete dissolution of the violet crystals. 100 μl from each well were transferred to a new 96-well plate and the absorbance was read with the FLUOstar Omega (BMG Labtech) platereader at a wavelength of 590 nm (reference wave length 630 nm). The data was analyzed using the MARS Data Analysis Software (BMG Labtech) and Prism 6.

[6] = system: unfolded protein response (PERK, EIF2A); assay: Western blot of UPR proteins in differentiated LUHMES neurons; settings: 48 h; for phosphorylated EIF2A (pEIF2A) protein / phosphorylated PERK (pPERK) protein: thapsigargin 30 nM or annonacin 25 nM
Experimental: as §1, §2, §4
200 μg of protein were diluted to equal concentrations with M-PER lysis buffer (Thermo Fisher Scientific) up to 270 μl. The PERK D11A8 antibody (Cell Signaling Technology, Beverly, Mass., USA) was added to a concentration of 1:100 and allowed to bind the antigen for one hour in a rotating 1.5 ml microcentrifuge tube. Then 30 μl of protein sepharose A beads (Sigma-Aldrich, 3 mg per ml) were added to each tube and left rotating overnight at 4° C. The tubes were then centrifuged at 10,000 g for 3 minutes and the supernatant was discarded. The beads were washed in M-PER three times. Each time the beads were centrifuged and the supernatant was extracted with a Hamilton Syringe (Hamilton, Bonaduz, Switzerland) and discarded. The beads were then mixed with 15 μl 1× Roti®-Load 1 (Carl Roth) and heated at 95° C. for 5 minutes. After another centrifugation step of 10,000 g for 1 minute the supernatant was loaded onto a gel with the Hamilton syringe and then blotted as described below.
as §5
The membranes were then washed and incubated with the species specific HRP-bound secondary antibody (Vector Laboratories, Burlingame, Calif., USA) at 1:2500 in 1× Roti®-Block solution for 2 h, followed by further washing and exposure to Clarity Western ECL Substrate (BioRad) or, in the case of MC1 and 4R-tau, to Amersham™ ECL™ Prime (GE Healthcare). […]

[7] = system: 4R-tau and 3R-tau isoforms; assay: Western blot of 3R-/4R-tau isoforms, annonacin model; settings: annonacin 25 nM, 48 h
Experimental: as §1, with “2005). […]” for “2005).”
Protein was extracted by scraping the cells from the culture plate with Mammalian Protein Extraction Reagent (M-PER, Thermo Fisher Scientific) and 1× cOmplete Protease Inhibitor Cocktail Tablets (Hoffmann-La Roche, Basel, Switzerland) and 1× PhosSTOP Phosphatase Inhibitor Cocktail Tablets (Hoffmann-La Roche). […] Protein concentrations were determined using the BCA kit (Thermo Fisher Scientific) by heating the samples at 60° C. for 30 min and measuring the absorption on the NanoDrop 2000c Spectrophotometer (Thermo Fisher Scientific). […]

[8] = system: LUHMES neurons; assay: ATP assay, annonacin-treated LUHMES neurons; settings: annonacin alone, different concentrations, 48 h
Experimental: as §1, §2
ATP assays were conducted using the ViaLight™ plus kit by Lonza according to the manufacturer's instructions. Luminescence was read with the FLUOstar Omega (BMG Labtech) platereader. The data was analyzed using the MARS Data Analysis Software (BMG Labtech) and Prism 6.

Row | SMILES | EIF2A mRNA expression ([1]; annonacin 25 nM) | ATF4 mRNA expression [1] | total tau protein (HT7) [2] | AD2 (p-Ser-396 and 404) tau phosphorylation ([2]; vs control) | CP13 (p-Ser-202) tau phosphorylation ([2]; vs control) | MC1 pathological tau conformation ([2]; vs control) | splicing factor SRSF2 mRNA [3] | 4R-tau mRNA level ([3]; 48 h) | condensation of DNA to chromatin clumps [4] | density of the dendritic network [4] | MTT signal [5] | total EIF2A protein ([6]; annonacin 25 nM, vs untreated) | total PERK protein ([6]; annonacin 25 nM, vs untreated) | phosphorylated EIF2A (pEIF2A) protein ([6]; vs untreated) | phosphorylated PERK (pPERK) protein ([6]; vs untreated) | 4R-tau protein level [7] | ATP concentration [8] | EIF2AK3 mRNA expression ([1]; thapsigargin 30 nM) | pPERK/PERK ratio ([6]; thapsigargin 30 nM)
1 | CCCCCCCCCCCC[C@@H](O)[C@H]1CC[C@H]([C@H](O)CCCC[C@H](O)CCCCC[C@@H](O)CC2=CC(C)OC2=O)O1 (stereo partly shown) [annonacin] | upregulated | upregulated | not altered | significantly increased | significantly increased | increased | significantly increase | increase | led to the condensation of DNA to chromatin clumps | reduced | concentration-dependent decline | reduced | reduced | reduced | increased | increase | concentration-dependent decline | – | –
2 | C/C=C(/C)C(=O)O[C@H]1C(C)=C2[C@H]([C@@H]1OC(=O)CCCCCCC)[C@@](C)(OC(C)=O)C[C@H](OC(=O)CCC)[C@@]1(O)[C@H]2OC(=O)[C@@]1(C)O [thapsigargin] | – | increased expression | – | – | – | – | – | – | – | – | – | – | – | increased phosphorylation | increased phosphorylation | – | – | increased expression | significantly increased
